Data published in PubChem BioAssay (NCI).
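Five compound concentrations were applied to cells in 96-well plates for 48 hours; endpoints were derived by simple linear interpolation of the resulting dose-response curve. GI50: concentration for 50% inhibition of growth. TGI denotes the concentration required for complete inhibition of growth.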

Key:
Assay in all cases: DTP human tumour cell line panel, 48 h
DU-145 prostate = test system: DU-145 prostate
SN12C renal = test system: SN12C renal
SR leukemia = test system: SR leukemia
OVCAR-4 ovarian = test system: OVCAR-4 ovarian
HCT-116 colon = test system: HCT-116 colon
MDA-MB-435 = test system: MDA-MB-435
CAKI-1 renal = test system: CAKI-1 renal
RPMI-8226 leukemia = test system: RPMI-8226 leukemia
TK-10 renal = test system: TK-10 renal
SF-295 CNS = test system: SF-295 CNS

Structure (SMILES) | GI50 (DU-145 prostate) | TGI (DU-145 prostate) | GI50 (SN12C renal) | TGI (SN12C renal) | GI50 (SR leukemia) | TGI (SR leukemia) | GI50 (OVCAR-4 ovarian) | TGI (OVCAR-4 ovarian) | GI50 (HCT-116 colon) | TGI (HCT-116 colon) | GI50 (MDA-MB-435) | TGI (MDA-MB-435) | GI50 (CAKI-1 renal) | TGI (CAKI-1 renal) | GI50 (RPMI-8226 leukemia) | TGI (RPMI-8226 leukemia) | GI50 (TK-10 renal) | TGI (TK-10 renal) | GI50 (SF-295 CNS) | TGI (SF-295 CNS)
N#C/C(=C1C=C/C(=N\O)C(Cl)=C\1)c1ccccc1 | 3.32 µM | 9.47 µM | 3.19 µM | 13 µM | 1.8 µM | 11.3 µM | 12.7 µM | 51.5 µM | 0.382 µM | 11.4 µM | 0.542 µM | 2.66 µM | 1.68 µM | 21.3 µM | 0.451 µM | 4.41 µM | 5.12 µM | 16.4 µM | 3.74 µM | > 100 µM
CC(C)n1c(=O)n(C)c2cnc3cc(F)c(-c4ccc(OCCCN5CCCCC5)nc4)cc3c21 | 17.7 µM | > 100 µM | 7.14 µM | 42.8 µM | 5.76 µM | 32.2 µM | 9.08 µM | 56.5 µM | 10.9 µM | 27.4 µM | 17 µM | 71.4 µM | 22.9 µM | > 100 µM | 3.22 µM | 14.6 µM | 11.3 µM | 45.4 µM | 3.99 µM | 16.4 µM
O=C(CN1C(=O)S/C(=C\C(Cl)=C\c2ccccc2)C1=O)NCCc1ccc(O)cc1 | 1.72 µM | 3.55 µM | 2.34 µM | 9.79 µM | 0.955 µM | > 100 µM | 2.61 µM | 11.9 µM | 1.42 µM | 3.1 µM | 2.09 µM | 5.28 µM | 1.78 µM | 3.76 µM | 1.74 µM | 6.96 µM | 2.42 µM | 5.02 µM | 2.1 µM | 4.29 µM
COc1nc(N)nc2c1ncn2[C@@H]1O[C@H](CO)[C@@H](O)[C@@H]1O | > 100 µM | > 100 µM | > 100 µM | > 100 µM | > 100 µM | > 100 µM | > 100 µM | > 100 µM | > 100 µM | > 100 µM | > 100 µM | > 100 µM | > 100 µM | > 100 µM | > 100 µM | > 100 µM | > 100 µM | > 100 µM | > 100 µM | > 100 µM
O=C(O)CP(=O)(O)O |  | > 100 µM |  | > 100 µM |  | > 100 µM |  | > 100 µM |  | > 100 µM |  | > 100 µM |  | > 100 µM |  | > 100 µM |  | > 100 µM |  | > 100 µM
Nc1ccc(-c2nc3ccccc3o2)cc1S | 19.9 µM | 55.3 µM | 13.2 µM | 27.5 µM | 10.5 µM | 64 µM | 7.58 µM | 26 µM | 15.1 µM | 28.3 µM | 17.8 µM | 36.9 µM | 20.5 µM | 36.4 µM | 12.4 µM | 32 µM | 11.6 µM | 29 µM | 13.6 µM | 28.8 µM
COC1=CC(c2ccc[nH]2)=N/C1=C\c1[nH]c(C)c(C(C)=O)c1C | 0.355 µM | > 100 µM | 4.46 µM | > 100 µM |  | 0.379 µM | 3.51 µM | > 100 µM | 0.0576 µM | > 100 µM | 0.299 µM | > 100 µM | 0.63 µM | > 100 µM | 0.329 µM | 2.69 µM | 1.06 µM | > 63.5 µM | 10 µM | > 100 µM
Cc1ccc(NC2=C(Cl)C(=O)N(Cc3ccccc3)C2=O)cc1Cl | 14.4 µM | 27.8 µM | 3.4 µM | 15.8 µM | 1.19 µM | 5.75 µM | 10.7 µM | 26.6 µM | 3.01 µM | 12.5 µM | 5.29 µM | 25.7 µM | 5.92 µM | 26 µM | 0.454 µM | 3.36 µM | 9.13 µM | 24.3 µM | 7.66 µM | 22.5 µM
COc1ccc(CCN2CCC(Nc3nc4ccccc4n3Cc3ccc(F)cc3)CC2)cc1 | 1.94 µM | 3.65 µM | 1.51 µM | 2.96 µM | 1.58 µM | 3.83 µM | 1.25 µM | 2.57 µM | 1.21 µM | 2.44 µM | 1.5 µM | 3 µM | 1.52 µM | 3.24 µM | 1.78 µM | 4.73 µM | 1.82 µM | 3.38 µM | 1.65 µM | 3.26 µM
Clc1ccc(C2=NN[C@H](c3cn(-c4ccccc4)nc3-c3ccccc3)C2)cc1 | 6.47 µM | 28.2 µM | 3.61 µM | 17.2 µM | 11.4 µM | > 100 µM | 4.87 µM | 34.3 µM | 2.03 µM | 4.01 µM | 5.13 µM | > 100 µM | 10.4 µM | 44.9 µM | 14.1 µM | > 100 µM | 5.87 µM | 18.6 µM | 3.36 µM | 13.2 µM
CC(=O)OC1Oc2cc(C)c(C)cc2-c2oc(=O)c(-c3ccc(F)cc3)cc21 (centres undefined) | 10.3 µM | 77.7 µM | 9.78 µM | > 100 µM | 1.21 µM | 5.22 µM | 11.3 µM | 63.9 µM | 4.23 µM | 46.2 µM | 1.59 µM | 4.21 µM | 15.8 µM | > 100 µM | 2.52 µM | 9.04 µM | 17.1 µM | 71.4 µM | 3.92 µM | > 100 µM
CC1(C)N=C(N)N=C(N)N1c1cccc(CCCCOc2ccccc2)c1 | 0.0626 µM | > 100 µM | 0.14 µM | 46.1 µM | < 0.011 µM | 20.7 µM | 0.441 µM | 38.6 µM | < 0.01 µM | > 100 µM | < 0.0194 µM | 25 µM | 2.7 µM | > 100 µM | 0.0601 µM | 13.6 µM | 0.197 µM | 62.6 µM | 0.34 µM | > 68.4 µM
CCCC(=O)Nc1ccc2c(c1)CN1C(=O)c3ccccc3C1=N2 |  | > 100 µM |  | > 100 µM |  | > 100 µM |  | > 100 µM |  | > 100 µM |  | > 100 µM |  | > 100 µM |  | > 100 µM |  | > 100 µM |  | > 100 µM
C=CC[C@@H]1/C=C(\C)C[C@H](C)C[C@H](OC)[C@H]2O[C@@](O)(C(=O)C(=O)N3CCCC[C@H]3C(=O)O[C@H](/C(C)=C/C3CC[C@@H](O)[C@H](OC)C3)[C@H](C)[C@@H](O)CC1=O)[C@H](C)C[C@@H]2OC (some centres undefined) | 16.1 µM | 30.2 µM | 16.3 µM | 31.6 µM | 14.1 µM | 39.8 µM | 13.9 µM | 27.2 µM | 13.8 µM | 26.7 µM | 16.2 µM | 37.7 µM | 12.9 µM | 33.4 µM | 8.59 µM | 32.2 µM | 14.3 µM | 27.8 µM | 14.6 µM | 31.9 µM
COc1ccc(-c2nn(-c3cccc(NC(=O)c4cccc(C(F)(F)F)c4)c3)cc2-c2ccncc2)cc1Cl | 4.36 µM | > 100 µM | 5.06 µM | > 100 µM | 0.605 µM | 5.44 µM | 6.24 µM | > 100 µM | 3.05 µM | > 100 µM | 0.343 µM | 2.03 µM | 2.57 µM | > 100 µM | 2.5 µM | 49 µM | 6.77 µM | > 100 µM | 2.37 µM | 9.91 µM
CC1OC(n2c3ccccc3c3c4c(c5c6ccccc6[nH]c5c32)C(=O)N(CCN2CCOCC2)C4=O)CC(O)C1O (centres undefined) | 2 µM | 7.85 µM | 1.75 µM | 7.47 µM | 0.257 µM | 14.5 µM | 4.03 µM | 14.1 µM | 1.33 µM | 6.92 µM | 2.71 µM | 9.59 µM | 1.44 µM | 6.37 µM | 2.97 µM | 20.7 µM | 6.33 µM | 13.8 µM | 1.61 µM | 6.23 µM
CSC1=Nc2c(c(C)c(C)n2COC(CO)CO)C2=NC(=O)CC(C)N12 (centres undefined) | > 100 µM | > 100 µM | > 100 µM | > 100 µM | > 100 µM | > 100 µM | > 100 µM | > 100 µM | > 100 µM | > 100 µM | > 100 µM | > 100 µM | > 100 µM | > 100 µM | > 100 µM | > 100 µM | > 100 µM | > 100 µM | > 100 µM | > 100 µM
CC(C(=O)O)/C(=C\c1ccc2c(c1)OCO2)C(=O)O (centres undefined) |  | > 100 µM |  | > 100 µM |  | > 100 µM |  | > 100 µM |  | > 100 µM |  | > 100 µM |  | > 100 µM |  | > 100 µM |  | > 100 µM |  | > 100 µM
COc1ccc(OC)c(/C=C2\COc3ccc(O)c(O)c3C2=O)c1 | 2.27 µM | 7.28 µM | 2.55 µM | 11.7 µM | 1.36 µM | > 100 µM | 2.58 µM | 14.5 µM | 1.82 µM | 4.13 µM | 1.97 µM | 5.48 µM | 2.08 µM | 5.73 µM | 0.751 µM | 6.12 µM | 4 µM | 14.3 µM | 4.29 µM | 15.5 µM
